Results taken from patent US8110398B2, “Stable cell lines and methods for evaluating gastrointestinal absorption of chemicals” (Absorption Systems Group, LLC, priority 2006, dated 2012).

Experiments:
C2BBE1 cells = conditions: reference values; cited from earlier work
[1] = reference values; cited from earlier work
P-gp = P-gp (Homo sapiens, UniProt P08183); assay: Calcein-AM assay; conditions: for RFU/μg of protein: 30 minutes
Procedure: Calcein-AM assay. To determine activity of the P-gp protein, calcein-AM assays were conducted.
To determine the P-gp activity, cells were plated in 96-well tissue culture plates and cultured for 48. After 48 hours, cell culture media was removed and the cells were washed with phosphate buffered saline solution (PBS). After washing, cells were incubated with 1 μM calcein-AM for 30 minutes. […] After incubation with calcein-AM, the cells were rinsed with fresh control buffer and fluorescence was measured using a Fluo-star fluorescence plate reader (BMG Lab Technologies, N.C.) with excitation and emission filters set at wavelengths of 485 nm and 538 nm, respectively.
Calcein-AM efflux is not mediated by BCRP. Therefore, any increase in calcein-AM uptake by the cells can be attributed to P-gp inhibition. The cells were plated in 96-well tissue culture plates and cultured for 48 hours. After 48 hours, cell culture media was removed and the cells were washed with phosphate buffered saline solution (PBS). After washing, cells were incubated with 1 μM calcein-AM for 30 minutes. […] After incubation with calcein-AM, the cells were rinsed with fresh control buffer and fluorescence was measured using a Fluo-star fluorescence plate reader (BMG Lab Technologies, N.C.) with excitation and emission filters set at wavelengths of 485 nm and 538 nm, respectively. The assay was carried out after each clone had been passaged 9 times.

MRP2 mRNA = assay: RT-PCR of MRP2 mRNA expression in transduced C2BBe1 cells; type: cell-based, human; conditions: for Percent decrease in ratio compared to control: MRP2 mRNA vs vector control; for Ratio of MRP2 band intensity to β-actin band intensity: RT-PCR, C2BBe1 cells, passages 2 to 5
Procedure: RT-PCR. Total RNA was extracted from cells according to the following protocol. Cells were harvested from culture by centrifugation, resuspended in 1 ml of TRIzol® reagent (Invitrogen, Carlsbad, Calif.), and incubated at room temperature for 5 minutes with gentle shaking. The suspension was transferred to a 1.5 ml centrifuge tube, to which 200 μl of Chloroform was added, followed by an additional 5 minute incubation period with shaking. After incubation, the suspension was centrifuged at 12,000×g for 12 minutes at 4° C. The supernatant was transferred to a fresh, sterile 1.5 ml centrifuge tube, and supplemented with 0.5 ml of 2-propanaol per 1 ml of TRIzol reagent, and incubated for 10 minutes at room temperature. The mixture was then centrifuged at 12,000×g for an additional 12 minutes at 4° C. After centrifugation, the supernatant was removed and the pellet was washed with 75% ethanol. The sample was re-centrifuged at 7500×g for 5 minutes at 4° C., followed by the removal of the supernatant. The pellet was allowed to air dry at room temperature. The pellet was resuspended in pre-warmed (55° C.) nuclease-free water, and incubated at 55° C. for 10 minutes. RNA yield and purity were quantified by absorbance at 260 nm and 280 nm.
RT-PCR mixtures were set up as 50 μl samples containing buffer, 1-2 μg of RNA, 10 μM of Forward primer, 10 μM of Reverse primer, Taq polymerase, and water. Primers to amplify human P-gylcoprotein were as follows: P-gp Forward 5′-[…]-3′ (SEQ ID NO: 9); and, P-gp Reverse 5′-[…]-3′ (SEQ ID NO: 10). Primers to amplify human MRP2 were as follows: MRP2 Forward 5′-[…]-3′ (SEQ ID NO: 11); and, MRP2 Reverse 5′-[…]-3′ (SEQ ID NO: 12). Primes to amplify human BCRP were as follows: BCRP Forward 5′-[…] 3′ (SEQ ID NO: 13); and, BCRP Reverse 5′-[…] 3′ (SEQ ID NO: 14). Human β-actin was amplified in parallel as a positive control using the following primers: β-actin Forward 5′-[…]-3′ (SEQ ID NO: 15); and, β-actin Reverse 5′-[…]-3′ (SEQ ID NO: 16).
The PCR cycles proceeded in a programmable thermocycler with the following parameters: cDNA synthesis, 1 cycle, 55° C. for 30 minutes; denaturation, 1 cycle, 94° C. for 2 minutes; PCR amplification, 40 cycles of 94° C. for 15 seconds, 62° C. for 30 seconds, 72° C. for 1 minute; and, final extension, 1 cycle, 72° C. for 5 minutes. Amplification was confirmed by electrophoresis in 2% agarose gels.
For this example, gene expression of MRP2 in C2BBe1 cells was determined by observing both the MRP2 mRNA content as well as the protein content of the cells following viral transduction. To examine mRNA content, total cellular RNA was harvested and amplified by RT-PCR using primers specific to the MRP2 gene (SEQ ID NO: 11 and 12). The RT-PCR products were then analyzed after separation by electrophoresis on a 2% agarose gel.
Vector control (VC) cells were prepared from cells transducted with lentiviruses encoding a non-interfering nucleic acid sequence (SEQ ID NO 27), as described in Example 7. Methods were described in Example 1. […]

Chain of P-gp (P08183 whole entry): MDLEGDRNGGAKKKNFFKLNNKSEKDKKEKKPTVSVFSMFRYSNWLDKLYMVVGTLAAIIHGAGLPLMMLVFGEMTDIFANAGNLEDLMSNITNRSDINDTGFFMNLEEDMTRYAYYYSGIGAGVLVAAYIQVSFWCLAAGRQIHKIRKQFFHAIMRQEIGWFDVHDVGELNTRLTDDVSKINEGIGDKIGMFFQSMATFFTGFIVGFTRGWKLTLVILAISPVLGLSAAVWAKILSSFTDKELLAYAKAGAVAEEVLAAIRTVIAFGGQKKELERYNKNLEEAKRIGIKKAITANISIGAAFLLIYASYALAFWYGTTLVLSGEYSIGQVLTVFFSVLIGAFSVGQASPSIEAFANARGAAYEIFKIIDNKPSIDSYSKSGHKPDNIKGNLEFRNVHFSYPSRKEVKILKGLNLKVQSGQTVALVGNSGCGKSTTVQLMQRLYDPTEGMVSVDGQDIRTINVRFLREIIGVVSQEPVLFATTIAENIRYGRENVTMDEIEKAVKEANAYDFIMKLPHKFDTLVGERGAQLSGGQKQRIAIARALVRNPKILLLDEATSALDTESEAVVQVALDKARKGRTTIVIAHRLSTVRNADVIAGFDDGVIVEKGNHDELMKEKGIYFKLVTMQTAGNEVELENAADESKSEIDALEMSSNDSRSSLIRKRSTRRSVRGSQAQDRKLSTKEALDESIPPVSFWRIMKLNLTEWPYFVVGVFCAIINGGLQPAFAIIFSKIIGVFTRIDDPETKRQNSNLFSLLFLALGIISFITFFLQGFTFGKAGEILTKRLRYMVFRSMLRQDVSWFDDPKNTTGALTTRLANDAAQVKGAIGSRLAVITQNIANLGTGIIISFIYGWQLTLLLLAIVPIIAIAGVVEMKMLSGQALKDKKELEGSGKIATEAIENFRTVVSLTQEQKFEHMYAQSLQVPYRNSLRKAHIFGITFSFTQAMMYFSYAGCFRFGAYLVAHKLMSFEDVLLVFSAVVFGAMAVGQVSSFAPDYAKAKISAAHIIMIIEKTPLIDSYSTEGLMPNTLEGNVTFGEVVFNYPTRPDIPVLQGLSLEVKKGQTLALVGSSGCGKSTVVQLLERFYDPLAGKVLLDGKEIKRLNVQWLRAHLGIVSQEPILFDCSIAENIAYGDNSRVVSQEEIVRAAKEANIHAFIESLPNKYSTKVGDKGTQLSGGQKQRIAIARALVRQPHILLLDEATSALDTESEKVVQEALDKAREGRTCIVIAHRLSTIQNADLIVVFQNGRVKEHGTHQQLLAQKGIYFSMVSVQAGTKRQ

## 1-Deamino-8-D-arginine
C2BBE1 cells
  Papp in C2BBE1 cells: 0.13 10^−6 cm/s

## CC(=O)Oc1ccccc1C(=O)O [Acetylsalicylic acid]
C2BBE1 cells
  Papp in C2BBE1 cells: 2.4 10^−6 cm/s
[1]
  % Absorption in human: 100%

## C=CCc1ccccc1OCC(O)CNC(C)C (stereo not shown) [Alprenolol]
C2BBE1 cells
  Papp in C2BBE1 cells: 40.5 10^−6 cm/s
[1]
  % Absorption in human: 93%

## NC(=O)CC[C@@H]1NC(=O)[C@H](Cc2ccccc2)NC(=O)[C@H](Cc2ccc(O)cc2)NC(=O)[C@@H](N)CSSC[C@@H](C(=O)N2CCC[C@H]2C(=O)N[C@@H](CCCN=C(N)N)C(=O)NCC(N)=O)NC(=O)[C@H](CC(N)=O)NC1=O [Arginine-vasopressin]
C2BBE1 cells
  Papp in C2BBE1 cells: 0.14 10^−6 cm/s
[1]
  % Absorption in human: 0%

## C[C@]12C[C@H](O)[C@H]3[C@@H](CCC4=CC(=O)CC[C@@]43C)[C@@H]1CC[C@@H]2C(=O)CO [Corticosterone]
[1]
  % Absorption in human: 100%

## C[C@@H]1C[C@H]2[C@@H]3CCC4=CC(=O)C=C[C@]4(C)[C@@]3(F)[C@@H](O)C[C@]2(C)[C@@]1(O)C(=O)CO [Dexamethasone]
[1]
  % Absorption in human: 100%

## CCOC(=O)C1=C(C)NC(C)=C(C(=O)OC)C1c1cccc(Cl)c1Cl (stereo not shown) [Felodipine]
C2BBE1 cells
  Papp in C2BBE1 cells: 22.7 10^−6 cm/s

## OC[C@@H](O)[C@@H](O)[C@H](O)[C@H](O)CO [Mannitol]
C2BBE1 cells
  Papp in C2BBE1 cells: 0.18 10^−6 cm/s
[1]
  % Absorption in human: 16%

## COCCc1ccc(OCC(O)CNC(C)C)cc1 (stereo not shown) [Metoptolol]
C2BBE1 cells
  Papp in C2BBE1 cells: 27 10^−6 cm/s

## O=C(O)c1cc(/N=N/c2ccc(O)c(C(=O)O)c2)ccc1O [Olsalazine]
C2BBE1 cells
  Papp in C2BBE1 cells: 0.11 10^−6 cm/s
[1]
  % Absorption in human: 2%

## CC(=O)Nc1ccc(OCC(O)CNC(C)C)cc1 (stereo not shown) [Practolol]
C2BBE1 cells
  Papp in C2BBE1 cells: 0.9 10^−6 cm/s

## CC(C)NCC(O)COc1cccc2ccccc12 (stereo not shown) [Propranolol]
C2BBE1 cells
  Papp in C2BBE1 cells: 41.9 10^−6 cm/s

## CC(C)(C)NCC(O)c1cc(O)cc(O)c1 (stereo not shown) [Terbutaline]
C2BBE1 cells
  Papp in C2BBE1 cells: 0.38 10^−6 cm/s
[1]
  % Absorption in human: 73%

## C[C@]12CC[C@H]3[C@@H](CCC4=CC(=O)CC[C@@]43C)[C@@H]1CC[C@@H]2O [Testosterone]
[1]
  % Absorption in human: 100%

## CC(=O)CC(c1ccccc1)c1c(O)c2ccccc2oc1=O (stereo not shown) [Warfarin]
C2BBE1 cells
  Papp in C2BBE1 cells: 38.3 10^−6 cm/s

## CC(=O)OCOC(=O)CN(CC(=O)OCOC(C)=O)Cc1cc2c(cc1OC(C)=O)Oc1cc(OC(C)=O)c(CN(CC(=O)OCOC(C)=O)CC(=O)OCOC(C)=O)cc1C21OC(=O)c2ccccc21 [calcein-AM]
P-gp; Vector Control cells
  Normalized Mean Fluorescence: 23.92
  Normalized Mean Fluorescence in the Presence of CSA: 62.86
P-gp; shRNA/BCRP clone #801 cells, passage 20
  Normalized Mean Fluorescence in the Presence of CSA: 72.31
P-gp; shRNA/BCRP clone #801 cells, passage 20, normalized for total protein
  Normalized Mean Fluorescence: 5.08
P-gp; shRNA/BCRP clone cell #798
  % decrease of Calcein-AM compared to vector control: 0.33%
P-gp; shRNA/BCRP clone cell #798, 1 μM calcein-AM, passaged 9 times
  RFU/μg of protein: 10.13 RFU/μg of protein
P-gp; shRNA/BCRP clone cell #799
  % decrease of Calcein-AM compared to vector control: 31.18%
P-gp; shRNA/BCRP clone cell #799, 1 μM calcein-AM, passaged 9 times
  RFU/μg of protein: 6.99 RFU/μg of protein
P-gp; shRNA/BCRP clone cell #800
  % decrease of Calcein-AM compared to vector control: 58.07%
P-gp; shRNA/BCRP clone cell #800, 1 μM calcein-AM, passaged 9 times
  RFU/μg of protein: 4.26 RFU/μg of protein
P-gp; shRNA/BCRP clone cell #801
  % decrease of Calcein-AM compared to vector control: 89.37%
P-gp; shRNA/BCRP clone cell #801, 1 μM calcein-AM, passaged 9 times
  RFU/μg of protein: 1.08 RFU/μg of protein
P-gp; shRNA/BCRP clone cell #802
  % decrease of Calcein-AM compared to vector control: 33.42%
P-gp; shRNA/BCRP clone cell #802, 1 μM calcein-AM, passaged 9 times
  RFU/μg of protein: 6.76 RFU/μg of protein
P-gp; vector control cells, 1 μM calcein-AM
  RFU/μg of protein: 10.16 RFU/μg of protein

## shRNA/MRP2 #3: interfering RNA to MRP2, SEQ ID NO: 17, lentivirally transduced into C2BBe1 cells; clone #3 (CCGGCGTGTATAAATCCAGGACCAACTCGAGTTGGTCCTGGATTTATACACGTTTTTG; listed as Homo Sapiens)
MRP2 mRNA
  Percent decrease in ratio compared to control: 15.12%
  Ratio of MRP2 band intensity to β-actin band intensity: 0.57

## shRNA/MRP2 #4: interfering RNA to MRP2, SEQ ID NO: 18, lentivirally transduced into C2BBe1 cells; clone #4 (CCGGCCTGGTGGATAGCAACAATATCTCGAGATATTGTTGCTATCCACCAGGTTTTTG; listed as Homo Sapiens)
MRP2 mRNA
  Percent decrease in ratio compared to control: 15.31%
  Ratio of MRP2 band intensity to β-actin band intensity: 0.57

## shRNA/MRP2 #5: interfering RNA to MRP2, SEQ ID NO: 19, lentivirally transduced into C2BBe1 cells; clone #5 (CCGGGCATCTGAAGTCCCTGAGAAACTCGAGTTTCTCAGGGACTTCAGATGCTTTTTG; listed as Homo Sapiens)
MRP2 mRNA
  Percent decrease in ratio compared to control: 6.04%
  Ratio of MRP2 band intensity to β-actin band intensity: 0.63

## shRNA/MRP2 #6: interfering RNA to MRP2, SEQ ID NO: 20, lentivirally transduced into C2BBe1 cells; clone #6 (CCGGGCCGGTGGTCAGATTATCATTCTCGAGAATGATAATCTGACCACCGGCTTTTTG; listed as Homo Sapiens)
MRP2 mRNA
  Percent decrease in ratio compared to control: −7.59%
  Ratio of MRP2 band intensity to β-actin band intensity: 0.72

## shRNA/MRP2 #7: interfering RNA to MRP2, SEQ ID NO: 21, lentivirally transduced into C2BBe1 cells; clone #7 (CCGGCCATAGCTTCATTCCTGAGTACTCGAGTACTCAGGAATGAAGCTATGGTTTTTG; listed as Homo Sapiens)
MRP2 mRNA
  Percent decrease in ratio compared to control: 19.53%
  Ratio of MRP2 band intensity to β-actin band intensity: 0.54
